In one series the target is T1, COX-2 (Mus musculus, UniProt Q05769).
T1 construct: host or cells: RAW 264.7 cells, pre-treated with aspirin and induced with interferon and LPS
T1 sequence (Q05769 18-604): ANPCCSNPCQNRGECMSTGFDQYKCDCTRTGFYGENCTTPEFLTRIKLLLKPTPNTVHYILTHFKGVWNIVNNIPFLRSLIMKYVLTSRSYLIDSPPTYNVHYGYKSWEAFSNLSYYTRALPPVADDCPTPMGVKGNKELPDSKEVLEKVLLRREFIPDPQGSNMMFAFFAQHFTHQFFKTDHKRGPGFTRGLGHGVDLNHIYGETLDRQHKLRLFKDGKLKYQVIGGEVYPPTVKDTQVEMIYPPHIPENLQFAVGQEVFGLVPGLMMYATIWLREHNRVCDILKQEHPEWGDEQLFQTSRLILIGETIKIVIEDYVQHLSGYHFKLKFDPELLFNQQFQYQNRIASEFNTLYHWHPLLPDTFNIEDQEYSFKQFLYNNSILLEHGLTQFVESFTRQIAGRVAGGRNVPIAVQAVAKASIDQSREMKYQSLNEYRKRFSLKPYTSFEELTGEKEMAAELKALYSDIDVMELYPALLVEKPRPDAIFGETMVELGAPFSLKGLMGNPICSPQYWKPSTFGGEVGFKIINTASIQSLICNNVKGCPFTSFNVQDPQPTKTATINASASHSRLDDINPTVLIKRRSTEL
Briefly: Assay for the COX-2 inhibitory activity using RAW 264.7 cell line (PGE2, EIA). It is filed as cell-based. The note with it: RAW264.7, 10 nM test compound, RAW 264.7 cells, aspirin pre-treated, interferon + LPS 18 hours, read-out: Cyclooxygenase (COX) Inhibition (%) COX-2 (10 nM). The method, then:
Each well was treated with 250 μM of aspirin and incubated at 37° C. for 2 hours. After the culture media were replaced with new culture media, the new culture media were treated with a test compound (10 nM) and incubated for 30 minutes. Then, each well was treated with interferon ? (100 units/ml) and lipopolysaccharide (LPS, 100 ng/ml) and incubated for 18 hours. The culture media were transferred to other test tubes. The concentration of PGE2 was quantified by means of the EIA kit (Cayman Chemicals).
(§1) The percentages of the COX inhibition were calculated according to the following equation: [formula]

The target of another series is T2, COX-1 (Homo sapiens, UniProt P23219).
T2 construct: host or cells: U-937 human lymphoma cells
T2 sequence (P23219 24-599): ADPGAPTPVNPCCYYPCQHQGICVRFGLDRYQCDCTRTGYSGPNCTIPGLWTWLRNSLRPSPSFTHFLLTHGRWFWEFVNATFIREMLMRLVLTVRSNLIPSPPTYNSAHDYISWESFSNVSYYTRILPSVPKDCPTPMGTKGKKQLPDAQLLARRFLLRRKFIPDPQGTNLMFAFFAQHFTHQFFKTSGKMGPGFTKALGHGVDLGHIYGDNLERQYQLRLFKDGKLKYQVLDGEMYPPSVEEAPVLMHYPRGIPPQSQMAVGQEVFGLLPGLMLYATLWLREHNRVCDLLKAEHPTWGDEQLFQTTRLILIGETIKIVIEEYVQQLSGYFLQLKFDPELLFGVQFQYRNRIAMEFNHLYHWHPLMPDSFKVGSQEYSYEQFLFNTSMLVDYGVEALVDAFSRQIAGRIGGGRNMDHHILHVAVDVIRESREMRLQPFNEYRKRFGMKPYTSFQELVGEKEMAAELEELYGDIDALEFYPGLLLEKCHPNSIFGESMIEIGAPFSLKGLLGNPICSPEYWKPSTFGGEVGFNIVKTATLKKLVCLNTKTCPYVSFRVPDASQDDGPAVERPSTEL
Briefly: Assay for the COX-1 inhibitory activity using U-937 (PGE2 inhibition). It is filed as cell-based. The conditions noted are these: 1 μM test compound; U-937 human lymphoma cells; arachidonic acid substrate; PGE2 vs DMSO control; read-out: Cyclooxygenase (COX) Inhibition (%) COX-1 (1 μM). The method, then:
The collected cells were diluted with HBSS (×1, Hank's balanced salt solution) to a concentration of 1×10^6 cells/ml. 1 ml of the dilute cell solution was placed into each well of 12-well plates. 5 μl of 1 μM solution of a test compound in DMSO and 5 μl of DMSO as a control were added to the wells. The wells were incubated in CO2 incubator at 37° C. for 15 minutes. Separately, 10 mM stock solution of arachidonic acid in ethanol was diluted ten times in ethanol to prepare 1 mM solution of arachidonic acid. Arachidonic acid acts as a substrate. 10 μl of the 1 mM solution of arachidonic acid was added to each well and incubated at CO2 incubator at 37° C. for 30 minutes. The cell solution of each well was placed in a centrifuge test tube and centrifuged at 10,000 rpm at 4° C. for 5 minutes. The concentration of PGE2 in the collected cells and the supernatant was quantified by means of a monoclonal kit (Cayman Chemicals). The percentages of PGE2 inhibition in a group of the test compound-treated cells in relation to a group of the DMSO-treated cells were calculated. Based on the calculated values, the COX-1 inhibitory activities were evaluated.
as §1

`NS(=O)(=O)c1ccc(-n2c(-c3ccccc3)csc2=S)cc1` [Example 1, 4-(4-phenyl-2-thioxothiazole-3-yl)benzenesulfonamide] returned a melting point of 235 °C. Besides, at COX-2, the inhibition at 0.01 µM worked out at 60.9%. Further, the inhibition at 1 µM at COX-1 was determined as 28.5%.

With `Cc1sc(=S)n(-c2ccc(S(N)(=O)=O)cc2)c1-c1ccccc1` [Example 2, 4-(5-methyl-4-phenyl-2-thioxothiazole-3-yl)benzenesulfonamide], the melting point came to 262 °C. On COX-2, the inhibition at 0.01 µM was 66.5%. Further, on COX-1, the inhibition at 1 µM is 35.2%.

`CS(=O)(=O)c1ccc(-c2csc(=S)n2-c2ccc(S(N)(=O)=O)cc2)cc1` [Example 3, 4-[4-(4-methanesulfonylphenyl)-2-thioxothiazole-3-yl]benzenesulfo namide] yielded a melting point of 288 °C. The inhibition at 0.01 µM on COX-2 came out at 65.8%. For the same compound, at COX-1, the inhibition at 1 µM stood at 30.7%.

For the compound `NS(=O)(=O)c1ccc(-n2c(-c3ccc(F)cc3)csc2=S)cc1` [Example 4, 4-[4-(4-fluorophenyl)-2-thioxothiazole-3-yl]benzenesulfonamide], the melting point was 271 °C. On COX-2, the inhibition at 0.01 µM was found to be 72.7%. On COX-1, the inhibition at 1 µM is 31.1%.

As for `NS(=O)(=O)c1ccc(-n2c(-c3cccc([N+](=O)[O-])c3)csc2=S)cc1` [Example 5, 4-[4-(3-nitrophenyl)-2-thioxothiazole-3-yl]benzenesulfonamide], the melting point was 284 °C. Further, the inhibition at 0.01 µM at COX-2 was found to be 75%. The inhibition at 1 µM at COX-1 is 15.8%.

For the compound `NS(=O)(=O)c1ccc(-n2c(-c3ccc(Cl)cc3)csc2=S)cc1` [Example 6, 4-[4-(4-chlorophenyl)-2-thioxothiazole-3-yl]benzenesulfonamide], the melting point was 242 °C. The inhibition at 0.01 µM at COX-2 turned out to be 73.5%. Moreover, the inhibition at 1 µM on COX-1 was determined as 38.5%.

As to `Cc1onc(-c2ccccc2)c1-c1ccc(S(N)(=O)=O)cc1` [Reference (Valdecoxib), Valdecoxib, reference compound], on COX-1, the inhibition at 1 µM is 29.5%.

As usually defined, the melting point is the temperature, or range, at which the solid turns liquid. What is called inhibition is the percentage by which the read-out fell short of the control.

(Values after patent US6727268B2, “2-thioxothiazole derivative, method for preparing the same, and pharmaceutical composition containing the same” (CJ Corp., priority 2002, dated 2004).)
